Experimental data: patent publication US10709714B2 (CL BioSciences LLC, priority 2013, dated 2020)
Like-named read-outs stand apart in the source and are kept apart here. Ends that are not written are not given here.

What was measured:
isolated rodent G cells = details: for IC50: read-out: OCTR (IC50); for EC50: read-out: Calcium (EC50)
Text: This animal has been extensively studied as a model of gastric acid pathophysiology relevant to long-term pharmacological inhibition of acid secretion (low acid state pathobiology).

[1] = target: gastrin/CCK2 receptor (human, on isolated PTH chief cells and on the MTC-SK cell line) (human) (UniProt P32239); test: cell-based or functional assay
[2] = system: MAPK phosphorylation in G cells; test: MAPK phosphorylation in G cells; type: cell-based; details: preincubation
isolated G cells [3] = test: cAMP production in isolated G cells; type: cell-based
Procedure: (§1) The effect of the ovarian hormone, estrogen on G cell function was evaluated.

isolated G cells [4] = test: Gastrin release from isolated G cells; type: cell-based; details: for EC50: read-out: EC50, stimulation of gastrin release
Procedure: as §1

isolated G cells [5] = test: Gastrin release from isolated G cells; type: cell-based; details: for effect on CaCl2-mediated gastrin release: nifedipine 1 μm (preincubation 10 mins), H-89 10 μM, PD98059 0.1 μM, wortmannin 1 nM
[6] = Plasma gastrin in Mastomys under irreversible gastric acid suppression; type: in vivo; details: Mastomys 6-9 months, treated 30 days, Loxtidine 1 mg/L in drinking water
Text: This animal has been extensively studied as a model of gastric acid pathophysiology relevant to long-term pharmacological inhibition of acid secretion (low acid state pathobiology). […] Such treatment therefore results in an achlorhydric and hypergastrinemic animal model.

Mastomys femur = test: Bone histomorphometry (TRAP-positive osteoclasts) in loxtidine-treated Mastomys; type: in vivo
Procedure: In one aspect, the changes in loxtidine-treated animals reflect loss of bone mineralization and increased resorption—features consistent with osteoporotic phenotypes. BM=bone mineralization, RC=resorption cavity.
Animals (females) 4-6 months old were treated with Loxtidine for 60 or 120 days. Age- and sex-matched untreated animals provided a control group.
Thereafter, bone histomorphometry was examined. […] Evidence of osteoid seams and osteomalacia was also noted (FIG. 21).

[7] = 0.02-4 U/min, young anesthetized pigs; cited from earlier work
CCK2 receptor = target: T1, CCK2 receptor (Homo sapiens, UniProt P32239); test: Gastrin-stimulated cAMP production and calcitonin release/transcription in MTC-SK cells; type: cell-based; details: H-89 10 μM preincubation
T1 construct: Gastrin stimulated both cAMP as well as calcitonin release from the well-differentiated human MTC cell line, MTC-SK; endogenous in cells; host or cells: MTC-SK (human medullary thyroid carcinoma cell line)
T1 sequence (P32239 1-447): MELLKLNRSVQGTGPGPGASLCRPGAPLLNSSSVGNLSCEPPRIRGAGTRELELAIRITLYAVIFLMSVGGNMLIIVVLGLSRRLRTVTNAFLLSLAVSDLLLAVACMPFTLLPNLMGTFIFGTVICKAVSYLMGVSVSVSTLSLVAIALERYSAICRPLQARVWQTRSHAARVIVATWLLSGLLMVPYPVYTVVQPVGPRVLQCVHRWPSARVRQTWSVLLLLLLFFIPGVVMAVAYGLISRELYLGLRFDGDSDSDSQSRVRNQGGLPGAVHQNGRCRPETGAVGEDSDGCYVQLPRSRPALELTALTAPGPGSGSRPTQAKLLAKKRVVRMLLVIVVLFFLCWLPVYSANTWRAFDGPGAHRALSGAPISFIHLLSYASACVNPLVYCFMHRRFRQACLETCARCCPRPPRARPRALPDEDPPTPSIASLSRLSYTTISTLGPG

PTH chief cells = details: read-out: EC50, stimulation of PTH release; human PTH chief cells
G cells = test: Calcium influx in G cells (flow cytometry, FITC shift); type: cell-based; details: CaCl2 4 mM
PTH receptor on G cells = test: cell-based or functional assay
[8] = target: T2, calcitonin receptor on G cells; test: cell-based or functional assay
T2 sequence (P30988 whole entry, species assumed, looked up): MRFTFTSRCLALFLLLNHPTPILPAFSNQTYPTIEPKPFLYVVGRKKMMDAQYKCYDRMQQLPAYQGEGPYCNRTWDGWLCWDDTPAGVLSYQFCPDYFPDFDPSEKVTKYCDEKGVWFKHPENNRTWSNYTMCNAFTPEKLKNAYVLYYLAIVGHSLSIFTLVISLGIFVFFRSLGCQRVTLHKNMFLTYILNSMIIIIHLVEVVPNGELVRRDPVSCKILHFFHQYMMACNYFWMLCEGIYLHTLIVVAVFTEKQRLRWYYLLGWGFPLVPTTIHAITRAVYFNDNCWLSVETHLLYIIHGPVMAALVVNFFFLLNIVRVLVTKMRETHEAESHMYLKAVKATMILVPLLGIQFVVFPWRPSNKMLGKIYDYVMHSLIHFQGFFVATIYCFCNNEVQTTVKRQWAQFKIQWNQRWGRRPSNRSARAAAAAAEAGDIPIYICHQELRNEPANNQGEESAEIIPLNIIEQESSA

[9] = H-89 10 μM preincubation 10 mins

C[C@@H](O)[C@@H]1NC(=O)[C@H](CCCCN)NC(=O)[C@@H](Cc2c[nH]c3ccccc23)NC(=O)[C@H](Cc2ccccc2)NC(=O)[C@@H](NC(=O)[C@H](N)Cc2ccccc2)CSSC[C@@H](C(=O)N[C@H](CO)[C@@H](C)O)NC1=O [OCTR, octreotide]
increase of IC50 in low acid versus normal G cells (isolated rodent G cells): ~5 fold | IC50 (isolated rodent G cells; Low acid G-cells): 0.14 nM | IC50 (isolated rodent G cells; Normal G-cells): 0.028 nM

gastrin (ligand)
PTH release from isolated human PTH chief cells [1]: 420 pM | PTH synthesis in isolated human PTH chief cells [1]: 1 nM | cAMP production in MTC-SK cells [1]: 0.67 pM

C[C@]12CC[C@@H]3c4ccc(O)cc4CC[C@H]3[C@@H]1CC[C@@H]2O [17β-estradiol]
inhibition of MAPK phosphorylation [2]: 75% | inhibition of cAMP production (isolated G cells [3]): −15% | IC50 (isolated G cells [3]; read-out: IC50, inhibition of cAMP synthesis): 0.0011 nM | inhibition of gastrin release (isolated G cells [4]): ~20% | IC50 (isolated G cells [4]; read-out: IC50, inhibition of gastrin release): 4.6 pM

COc1cccc(-c2cc(=O)c3ccccc3o2)c1N [PD98059]
effect on CaCl2-mediated gastrin release (isolated G cells [5]): could not be inhibited

PTH: parathyroid hormone
stimulation of cAMP production (isolated G cells [3]): 250% | EC50 (isolated G cells [3]; read-out: E50, stimulation of cAMP production): 0.004 µM | stimulation of gastrin release (isolated G cells [4]; isolated G cells): ~8 fold | EC50 (isolated G cells [4]; estimated): 0.06 µM

Cn1nc(CO)nc1NCCCOc1cccc(CN2CCCCC2)c1 [Loxtidine]
plasma gastrin levels [6]: 104 ± 23 pg/mL | numbers of TRAP-positive osteoclasts (Mastomys femur; 8-week treated Mastomys): 15±6 | numbers of TRAP-positive osteoclasts (Mastomys femur; 16-week treated Mastomys): 16±4.5

synthetic human 1-34 PTH: synthetic human 1-34 parathyroid hormone used in cited pig studies (SVSEIQLMHNLGKHLNSMERVEWLRKKLQDVHNF; Parathyroid hormone; UniProt P01270 32-65, looked up, fragment)
increase in gastrin release [7]: approximately 10 fold

O=S(=O)(NCCNC/C=C/c1ccc(Br)cc1)c1cccc2cnccc12 [H-89]
effect on calcitonin inhibition of gastrin release (isolated G cells [5]; H-89 10 μM preincubation): reversed | effect on PTH-stimulated gastrin release (isolated G cells [5]; [9]): inhibited | effect on CaCl2-mediated gastrin release (isolated G cells [5]): could not be inhibited | effect on PTH-stimulated cAMP production (isolated G cells [3]; [9]): reversed | effect on gastrin-stimulated cAMP production (CCK2 receptor): inhibited | effect on gastrin-stimulated calcitonin gene transcription (CCK2 receptor): reversed

CSCC[C@H](NC(=O)[C@H](Cc1c[nH]c2ccccc12)NC(=O)CNC(=O)[C@H](Cc1ccc(O)cc1)NC(=O)[C@H](C)NC(=O)[C@H](CCC(=O)O)NC(=O)[C@H](CCC(=O)O)NC(=O)[C@H](CCC(=O)O)NC(=O)[C@H](CCC(=O)O)NC(=O)[C@H](CCC(=O)O)NC(=O)[C@H](CC(C)C)NC(=O)[C@H](Cc1c[nH]c2ccccc12)NC(=O)[C@@H]1CCCN1C(=O)CNC(=O)[C@@H]1CCC(=O)N1)C(=O)N[C@@H](CC(=O)O)C(=O)N[C@@H](Cc1ccccc1)C(N)=O [Gastrin]
EC50 (PTH chief cells): 0.00042 µM

CC(C)C[C@H](NC(=O)[C@H](CCCCN)NC(=O)CNC(=O)[C@H](CC(C)C)NC(=O)[C@@H](NC(=O)[C@@H]1CSSC[C@H](N)C(=O)N[C@@H](CO)C(=O)N[C@@H](CC(N)=O)C(=O)N[C@@H](CC(C)C)C(=O)N[C@@H](CO)C(=O)N[C@@H]([C@@H](C)O)C(=O)N1)C(C)C)C(=O)N[C@@H](CO)C(=O)N[C@@H](CCC(N)=O)C(=O)N[C@@H](CCC(=O)O)C(=O)N[C@@H](CC(C)C)C(=O)N[C@@H](Cc1c[nH]cn1)C(=O)N[C@@H](CCCCN)C(=O)N[C@@H](CC(C)C)C(=O)N[C@@H](CCC(N)=O)C(=O)N[C@H](C(=O)N[C@@H](Cc1ccc(O)cc1)C(=O)N1CCC[C@H]1C(=O)N[C@@H](CCCNC(=N)N)C(=O)N[C@H](C(=O)N[C@@H](CC(N)=O)C(=O)N[C@H](C(=O)NCC(=O)N[C@@H](CO)C(=O)NCC(=O)N[C@H](C(=O)N1CCC[C@H]1C(N)=O)[C@@H](C)O)[C@@H](C)O)[C@@H](C)O)[C@@H](C)O [Calcitonin]
inhibition of cAMP production (isolated G cells [3]): 20% | IC50 (isolated G cells [3]; read-out: I50, inhibition of cAMP production): 3.8 nM | inhibition of gastrin release (isolated G cells [4]): ~20%

[Ca+2].[Cl-].[Cl-] [CaCl2]
cAMP production during calcium-mediated gastrin secretion (isolated G cells [3]): not associated with cAMP production | stimulation of gastrin release (isolated G cells [4]; isolated G cells): 8 fold | EC50 (isolated G cells [4]; isolated G cells): 4100 µM | calcium influx (FITC shift rightwards) (G cells): > 5 fold | EC50 (isolated rodent G cells; Low acid G-cells): 10000 µM | EC50 (isolated rodent G cells; Normal G-cells): 4000 µM

B1: PTH (parathyroid hormone) (ligand, UniProt P01270 32-115, looked up, species assumed)
Parathyroid hormone: SVSEIQLMHNLGKHLNSMERVEWLRKKLQDVHNFVALGAPLAPRDAGSQRPRKKEDNVLVESHEKSLGEADKADVNVLTKAKSQ
modifications: Parathyroid hormone
cAMP production in isolated G cells (PTH receptor on G cells): 4 nM | gastrin release from isolated G cells (PTH receptor on G cells): 60 nM

B2: native bovine PTH: native bovine parathyroid hormone used in cited pig studies (peptide, UniProt P01268 32-115, looked up)
Parathyroid hormone: AVSEIQFMHNLGKHLSSMERVEWLRKKLQDVHNFVALGASIAYRDGSSQRPRKKEDNVLVESHQKSLGEADKADVDVLIKAKPQ
modifications: Parathyroid hormone
notes: native bovine parathyroid hormone used in cited pig studies
increase in gastrin release [7]: approximately 10 fold

B3: calcitonin (ligand, UniProt P01258 85-116, looked up, species assumed)
Calcitonin: CGNLSTCMLGTYTQDFNKFHTFPQTAIGVGAP
modifications: ends and bridges not checked; cysteine pairing not given here
inhibition of cAMP production in isolated G cells [8]: 3.8 nM | inhibition of gastrin release from isolated G cells [8]: 1.9 nM
